Among the data in patent US11045455B2, “Azetidine derivative, preparation method therefor, and use thereof” (SICHUAN KELUN-BIOTECH BIOPHARMACEUTICAL CO., LTD., priority 2016, dated 2021) are IC50 and AUC(0-t) values, retold here.

One data set concerns the target JAK1 (Homo sapiens (Human), UniProt P23458). Kind of data set: JAK1 enzymatic inhibition assay (ADP-Glo luminescence). In kind it is biochemical. For orientation: ADP-Glo first removes unused ATP, then detects ADP through luciferase.
The next data set deals with JAK2 (Homo sapiens (Human), UniProt O60674). Kind of data set: JAK2 enzymatic inhibition assay (ADP-Glo luminescence). In kind it is biochemical.
Chain of JAK2 (O60674 whole entry): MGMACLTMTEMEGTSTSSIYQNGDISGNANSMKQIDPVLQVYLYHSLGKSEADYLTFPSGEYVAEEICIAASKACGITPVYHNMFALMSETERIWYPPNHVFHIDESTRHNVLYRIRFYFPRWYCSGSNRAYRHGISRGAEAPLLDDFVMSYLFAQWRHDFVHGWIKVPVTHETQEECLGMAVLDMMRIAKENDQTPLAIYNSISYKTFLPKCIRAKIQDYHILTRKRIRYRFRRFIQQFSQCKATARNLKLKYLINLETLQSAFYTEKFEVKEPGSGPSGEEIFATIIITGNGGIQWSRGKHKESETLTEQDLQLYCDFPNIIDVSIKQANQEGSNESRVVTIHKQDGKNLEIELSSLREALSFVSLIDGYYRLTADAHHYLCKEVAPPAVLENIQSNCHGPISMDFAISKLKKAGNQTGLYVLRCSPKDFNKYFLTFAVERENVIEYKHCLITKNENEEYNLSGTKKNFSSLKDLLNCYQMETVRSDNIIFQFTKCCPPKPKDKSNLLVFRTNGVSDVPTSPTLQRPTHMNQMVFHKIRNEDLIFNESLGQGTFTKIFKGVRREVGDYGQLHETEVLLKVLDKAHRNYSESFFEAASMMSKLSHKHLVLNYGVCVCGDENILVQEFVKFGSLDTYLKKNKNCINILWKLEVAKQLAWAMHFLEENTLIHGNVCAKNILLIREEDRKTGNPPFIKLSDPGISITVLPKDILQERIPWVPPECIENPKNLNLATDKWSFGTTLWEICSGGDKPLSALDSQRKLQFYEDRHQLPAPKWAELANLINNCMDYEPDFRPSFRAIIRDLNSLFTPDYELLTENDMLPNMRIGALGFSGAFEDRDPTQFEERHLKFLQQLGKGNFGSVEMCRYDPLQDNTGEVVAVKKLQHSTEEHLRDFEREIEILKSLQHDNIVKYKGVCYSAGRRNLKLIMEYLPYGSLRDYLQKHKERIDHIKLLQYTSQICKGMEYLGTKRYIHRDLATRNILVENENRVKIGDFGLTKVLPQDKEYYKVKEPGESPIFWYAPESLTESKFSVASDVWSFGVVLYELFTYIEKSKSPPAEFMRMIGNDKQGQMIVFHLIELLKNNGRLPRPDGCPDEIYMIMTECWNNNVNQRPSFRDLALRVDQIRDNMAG
The next data set has as its target hERG potassium channel (Homo sapiens (Human), UniProt Q12809). In words: Predictor hERG Fluorescence Polarization Assay. Particulars: tested at 3, 10 and 30 μM. In kind it is binding. The protocol: Experimental Example 2: Safety Test
The effect of test compounds on hERG potassium channel were determined using Predictor™ hERG Fluorescence Polarization Assay at concentrations of 3, 10, and 30 μM.

Another data set has as its target TYK2 (Homo sapiens (Human), UniProt P29597). Kind of data set: TYK2 enzymatic inhibition assay (LanthaScreen TR-FRET). In kind it is biochemical. The procedure:
(§1) Experimental Example 1: JAK1, JAK2, JAK3 and TYK2 Enzymatic Inhibition Assay
As for the TYK2 enzyme, Tb-anti-pSTAT1 was added, and incubation at room temperature was performed.
For orientation: TR-FRET usually uses a lanthanide donor and a delayed reading to cut background.

Another data set addresses JAK3 (Homo sapiens (Human), UniProt P52333). Kind of data set: JAK3 enzymatic inhibition assay (ADP-Glo luminescence). In kind it is biochemical.
Source text: as §1

Data set [1] is described as follows: Pharmacokinetic study in rats, intravenous (IV) administration. In kind it is in vivo. To be noted: male, SD, rat, plasma, IV administration at 1 mg/kg, 0-24 h. The protocol:
Experimental Example 3: Pharmacokinetic Studies
To study the pharmacokinetic characteristics of test compounds, the test compounds were administrated by intravenous (IV) and gavage (PO) routes to male SD rats. The dosage for IV administration was 1 mg/kg, and that for PO administration was 0.5-5 mg/kg. The vehicle is 10% DMSO: 10% solutol: 80% physiological saline, or 5% DMSO: 5% solutol: 90% physiological saline, or 10% DMSO: 60% PEG: 30% physiological saline. Blood was collected at various time points after administration. Plasma samples were analyzed by LC-MS/MS after protein precipitation process with acetonitrile.

For another data set, the target named is CYP1A2 (Homo sapiens (Human), UniProt P05177). In words: CYP450 enzyme test, P450-Glo screening system, CYP1A2. In kind it is in vitro ADME. To be noted: read-out: IC50 (μM) CYP1A2. An excerpt: (§2) CYP450 is the most important enzymatic system in drug metabolism. The enzymes involved in the metabolism interact with a drug, and mainly include CYP1A2, CYP2D6 and CYP3A4. In the CYP450 enzyme test, P450-Glo™ CYP1A2 screening system was employed to determine the inhibitory activity of compounds on CYP1A2 and CYP3A4. The Vivid® CYP2D6 Cyan screening kit was employed to determine the inhibitory activity of test compounds on CYP2D6.

The target of the next data set is CYP3A4 (Homo sapiens (Human), UniProt P08684). Kind of data set: CYP450 enzyme test, P450-Glo screening system, CYP3A4. In kind it is in vitro ADME.
Source text: as §2

The target in another data set is CYP2D6 (Homo sapiens (Human), UniProt P10635). In words: CYP450 enzyme test, Vivid CYP2D6 Cyan screening kit. In kind it is in vitro ADME.
Chain of CYP2D6 (P10635 whole entry): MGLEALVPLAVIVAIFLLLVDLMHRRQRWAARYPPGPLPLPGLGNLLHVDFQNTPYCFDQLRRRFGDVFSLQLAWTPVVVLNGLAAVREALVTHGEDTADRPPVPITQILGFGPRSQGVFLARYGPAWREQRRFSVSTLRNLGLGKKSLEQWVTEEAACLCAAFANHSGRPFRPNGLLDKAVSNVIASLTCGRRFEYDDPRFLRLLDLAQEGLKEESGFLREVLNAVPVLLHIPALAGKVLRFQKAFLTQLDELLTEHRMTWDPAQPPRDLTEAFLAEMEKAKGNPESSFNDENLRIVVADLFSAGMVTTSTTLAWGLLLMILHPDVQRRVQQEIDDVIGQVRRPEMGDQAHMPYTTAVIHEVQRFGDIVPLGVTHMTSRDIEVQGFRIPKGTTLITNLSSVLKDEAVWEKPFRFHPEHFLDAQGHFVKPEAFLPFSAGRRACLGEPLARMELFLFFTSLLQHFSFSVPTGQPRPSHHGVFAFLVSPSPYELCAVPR
Source text: as §2

Each structure is given as a SMILES string. pIC50: −log10 of the molar value. Structures can show the parent of a compound that is named as a salt. Where two headings read alike, the source gives them in different places.

Chain of TYK2 (P29597 whole entry): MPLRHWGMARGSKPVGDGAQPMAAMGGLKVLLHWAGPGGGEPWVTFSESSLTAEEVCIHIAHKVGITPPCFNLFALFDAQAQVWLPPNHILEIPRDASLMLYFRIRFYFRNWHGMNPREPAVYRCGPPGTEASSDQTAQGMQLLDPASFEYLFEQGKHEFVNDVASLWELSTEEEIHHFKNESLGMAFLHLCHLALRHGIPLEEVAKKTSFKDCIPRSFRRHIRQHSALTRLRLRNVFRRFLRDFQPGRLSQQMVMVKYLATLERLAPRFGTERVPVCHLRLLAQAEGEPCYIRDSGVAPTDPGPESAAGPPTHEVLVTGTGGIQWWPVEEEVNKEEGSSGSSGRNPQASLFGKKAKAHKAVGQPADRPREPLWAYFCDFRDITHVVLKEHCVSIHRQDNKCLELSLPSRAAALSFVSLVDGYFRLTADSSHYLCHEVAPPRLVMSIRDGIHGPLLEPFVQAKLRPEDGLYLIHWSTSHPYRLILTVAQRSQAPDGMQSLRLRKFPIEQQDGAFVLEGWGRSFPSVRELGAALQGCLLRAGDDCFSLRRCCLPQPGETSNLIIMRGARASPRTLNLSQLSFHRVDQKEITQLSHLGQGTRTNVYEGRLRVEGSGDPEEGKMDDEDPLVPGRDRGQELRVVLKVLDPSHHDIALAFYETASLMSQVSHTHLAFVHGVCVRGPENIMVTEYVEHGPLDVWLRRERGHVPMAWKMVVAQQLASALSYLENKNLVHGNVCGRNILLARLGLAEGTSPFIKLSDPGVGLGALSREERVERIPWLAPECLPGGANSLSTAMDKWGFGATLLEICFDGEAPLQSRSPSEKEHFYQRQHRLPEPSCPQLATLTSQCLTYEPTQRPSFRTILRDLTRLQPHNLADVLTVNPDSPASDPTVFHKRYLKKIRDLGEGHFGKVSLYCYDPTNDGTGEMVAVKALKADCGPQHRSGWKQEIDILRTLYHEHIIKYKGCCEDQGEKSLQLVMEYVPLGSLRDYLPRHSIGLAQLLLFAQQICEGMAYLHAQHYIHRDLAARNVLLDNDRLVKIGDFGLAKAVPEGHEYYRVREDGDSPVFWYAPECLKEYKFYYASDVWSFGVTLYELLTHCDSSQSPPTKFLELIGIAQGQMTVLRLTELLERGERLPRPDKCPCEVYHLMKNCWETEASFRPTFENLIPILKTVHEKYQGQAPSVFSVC
Chain of JAK1 (P23458 whole entry): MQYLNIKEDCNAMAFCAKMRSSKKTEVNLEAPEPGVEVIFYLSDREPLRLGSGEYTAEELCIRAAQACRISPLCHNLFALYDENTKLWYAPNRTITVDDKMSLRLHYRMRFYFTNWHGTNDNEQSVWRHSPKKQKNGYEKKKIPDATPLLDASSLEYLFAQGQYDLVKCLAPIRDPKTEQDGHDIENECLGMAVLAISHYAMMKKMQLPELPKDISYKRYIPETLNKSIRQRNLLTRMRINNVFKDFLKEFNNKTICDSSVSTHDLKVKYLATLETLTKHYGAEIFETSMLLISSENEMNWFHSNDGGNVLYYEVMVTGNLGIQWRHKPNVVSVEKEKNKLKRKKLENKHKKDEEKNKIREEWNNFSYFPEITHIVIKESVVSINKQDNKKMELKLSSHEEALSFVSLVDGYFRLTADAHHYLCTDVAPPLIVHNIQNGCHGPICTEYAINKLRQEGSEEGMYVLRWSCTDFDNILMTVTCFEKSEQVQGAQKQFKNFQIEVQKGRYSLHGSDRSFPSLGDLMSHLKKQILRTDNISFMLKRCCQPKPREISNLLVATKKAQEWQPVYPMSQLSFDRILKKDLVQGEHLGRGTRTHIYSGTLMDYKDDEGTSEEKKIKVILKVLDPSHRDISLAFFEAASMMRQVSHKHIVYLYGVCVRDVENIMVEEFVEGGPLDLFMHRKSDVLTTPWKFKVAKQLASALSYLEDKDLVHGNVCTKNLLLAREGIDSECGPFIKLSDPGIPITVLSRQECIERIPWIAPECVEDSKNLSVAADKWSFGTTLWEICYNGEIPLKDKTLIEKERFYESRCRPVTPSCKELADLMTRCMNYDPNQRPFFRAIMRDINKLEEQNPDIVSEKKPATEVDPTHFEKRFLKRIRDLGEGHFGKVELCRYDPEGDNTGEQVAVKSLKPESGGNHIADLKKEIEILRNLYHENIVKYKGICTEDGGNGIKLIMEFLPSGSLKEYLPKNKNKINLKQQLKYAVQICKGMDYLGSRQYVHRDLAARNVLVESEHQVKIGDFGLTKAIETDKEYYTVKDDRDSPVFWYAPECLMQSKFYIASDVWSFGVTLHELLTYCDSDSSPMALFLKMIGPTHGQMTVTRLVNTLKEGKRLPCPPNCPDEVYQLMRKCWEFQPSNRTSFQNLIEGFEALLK
Chain of JAK3 (P52333 whole entry): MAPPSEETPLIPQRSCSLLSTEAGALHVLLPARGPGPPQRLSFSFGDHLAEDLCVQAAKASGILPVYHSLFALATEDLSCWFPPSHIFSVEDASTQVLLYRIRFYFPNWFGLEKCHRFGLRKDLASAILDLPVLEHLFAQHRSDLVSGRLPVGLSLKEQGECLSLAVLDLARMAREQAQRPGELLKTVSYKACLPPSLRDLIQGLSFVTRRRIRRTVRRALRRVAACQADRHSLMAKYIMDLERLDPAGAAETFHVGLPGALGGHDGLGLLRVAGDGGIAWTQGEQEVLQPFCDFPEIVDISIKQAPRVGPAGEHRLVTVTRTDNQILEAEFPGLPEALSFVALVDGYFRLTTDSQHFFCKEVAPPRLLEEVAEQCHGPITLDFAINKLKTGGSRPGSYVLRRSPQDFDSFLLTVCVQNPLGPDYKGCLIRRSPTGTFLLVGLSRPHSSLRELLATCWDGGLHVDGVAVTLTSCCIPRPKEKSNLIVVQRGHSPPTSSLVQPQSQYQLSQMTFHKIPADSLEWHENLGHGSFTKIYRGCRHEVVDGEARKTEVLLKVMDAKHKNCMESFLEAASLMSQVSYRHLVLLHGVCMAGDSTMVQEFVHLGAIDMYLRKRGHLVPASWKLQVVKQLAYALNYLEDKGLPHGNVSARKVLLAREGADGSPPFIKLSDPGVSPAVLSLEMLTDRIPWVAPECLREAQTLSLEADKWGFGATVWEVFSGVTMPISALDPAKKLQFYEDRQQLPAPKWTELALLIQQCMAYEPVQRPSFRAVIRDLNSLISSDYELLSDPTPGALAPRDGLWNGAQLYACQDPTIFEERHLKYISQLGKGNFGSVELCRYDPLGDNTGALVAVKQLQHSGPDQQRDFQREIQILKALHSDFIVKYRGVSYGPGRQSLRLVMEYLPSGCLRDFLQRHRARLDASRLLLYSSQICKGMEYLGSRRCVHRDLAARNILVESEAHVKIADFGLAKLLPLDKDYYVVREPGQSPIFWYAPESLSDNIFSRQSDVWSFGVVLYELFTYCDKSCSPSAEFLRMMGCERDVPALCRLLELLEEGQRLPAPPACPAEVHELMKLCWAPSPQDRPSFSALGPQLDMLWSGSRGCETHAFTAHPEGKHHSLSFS
Method for JAK1: (§3) Test Materials • JAK1, JAK2, JAK3 and TYK2 enzymes were purchased from Life Technologies; and substrate GFP-STAT1 was purchased from Life Technologies.
(§4) Test compounds, enzymes, the substrate and ATP were diluted to the desired concentrations with the assay buffer (40 mM Tris-HCl, pH 7.4, 20 mM MgCl2, 0.1% BSA). The former three were added into a multiple well plate, and incubated at room temperature after being mixed homogeneously. ATP was added to initiate the kinase reaction, and incubation at room temperature was performed. ADP-Glo was added, and incubation at room temperature was performed. The kinase detector reagent was then added, and incubation at room temperature was performed. The luminescence intensity of each test group was detected, and the half maximal inhibitory concentration (IC50) value was calculated.
Method for JAK2: as §3, §4

One may read the IC50 as the concentration that inhibits the measured activity by half. The term pIC50 denotes −log10 of the IC50, conventionally taken in molar units. For `CC1(S(=O)(=O)N2CC(CC#N)(n3cc(-c4c(C#N)cnc5[nH]ccc45)cn3)C2)CC1` [Compound 1, 4-(1-(3-(cyanomethyl)-1-((1-methylcyclopropyl)sulfonyl)azetidin-3-yl)-1H-pyrazol-4-yl)-1H-pyrrolo[2,3-b]pyridine-5-carbonitrile], the IC50 against JAK1 was found to be 0.78 nM; against JAK2, 1.98 nM. For the same compound, at hERG potassium channel, the pIC50 is less than 4.52.

On to `CS(=O)(=O)N1CC(CC#N)(n2cc(-c3c(C#N)cnc4[nH]ccc34)cn2)C1` [Compound 2, 4-(1-(3-(cyanomethyl)-1-(methylsulfonyl)azetidin-3-yl)-1H-pyrazol-4-yl)-1H-pyrrolo[2,3-b]pyridine-5-carbonitrile], for which the IC50 on JAK1 amounted to 0.17 nM; against JAK2, 0.42 nM. At hERG potassium channel, the negative-log IC50 (pIC50) is less than 4.52.

For `CCS(=O)(=O)N1CC([C@H](C)C#N)(n2cc(-c3ncnc4[nH]ccc34)cn2)C1` [Compound 12-2, (S)-2-(3-(4-(7H-pyrrolo[2,3-d]pyrimidin-4-yl)-1H-pyrazol-1-yl)-1-(ethylsulfonyl)azetidin-3-yl)propanenitrile], the IC50 was 1.81 nM on JAK2, approximately 30 nM against TYK2 and 10 to 30 nM on JAK3. In addition, at hERG potassium channel, the pIC50 was less than 4.52.

As to `CCS(=O)(=O)N1CC(CC#N)(n2cc(-c3ccnc4[nH]ccc34)c(C)n2)C1` [Compound 13, 2-(1-(ethylsulfonyl)-3-(3-methyl-4-(1H-pyrrolo[2,3-b]pyridin-4-yl)-1H-pyrazol-1-yl)azetidin-3-yl)acetonitrile], the IC50 was 2.89 nM against JAK1, 1.44 nM at JAK2, approximately 30 nM on TYK2 and more than 30 nM at JAK3. In addition, on hERG potassium channel, the pIC50 was less than 4.52.

Take `CN(C)S(=O)(=O)N1CC(CC#N)(n2cc(-c3ccnc4[nH]ccc34)cn2)C1` [Compound 14, 3-(4-(1H-pyrrolo[2,3-b]pyridin-4-yl)-1H-pyrazol-1-yl)-3-(cyanomethyl)-N,N-dimethylazetidine-1-sulfonamide]: the values for the IC50 at JAK1 and against JAK2 were 1.3 nM and 0.5 nM, respectively. The pIC50 at hERG potassium channel is less than 4.52.

Take `CCS(=O)(=O)N1CC(CC#N)(n2ccc(-c3c(C#N)cnc4[nH]ccc34)c2)C1` [Compound 17, 4-(1-(3-(cyanomethyl)-1-(ethylsulfonyl)azetidin-3-yl)-1H-pyrrol-3-yl)-1H-pyrrolo[2,3-b]pyridine-5-carbonitrile]: the IC50 against JAK1 was determined as 1.13 nM; at JAK2, 0.93 nM. Besides, on hERG potassium channel, the pIC50 is less than 4.52.

Take `CCCS(=O)(=O)N1CC(CC#N)(n2cc(-c3ccnc4[nH]ccc34)cn2)C1` [Compound 23, 2-(3-(4-(1H-pyrrolo[2,3-b]pyridin-4-yl)-1H-pyrazol-1-yl)-1-(propylsulfonyl)azetidin-3-yl)acetonitrile]: the 50% inhibitory concentration (IC50) at JAK1 was 2.41 nM; at JAK2, 0.89 nM. Besides, the pIC50 at hERG potassium channel is less than 4.52.

`N#CCC1(n2cc(-c3ccnc4[nH]ccc34)cn2)CN(S(=O)(=O)C2CC2)C1` [Compound 26, 2-(3-(4-(1H-pyrrolo[2,3-b]pyridin-4-yl)-1H-pyrazol-1-yl)-1-(cyclopropylsulfonyl)azetidin-3-yl)acetonitrile]: the IC50 on JAK1 is 0.46 nM; at JAK2, 0.37 nM. For the same compound, at hERG potassium channel, the pIC50 is less than 4.52.

The AUC(0-t) is the area under the concentration-time curve up to a stated or last time point. High values mean more exposure, low ones less exposure. As to `CC1(S(=O)(=O)N2CC(CC#N)(n3cc(-c4ccnc5[nH]ccc45)cn3)C2)CC1` [Compound 31, 2-(3-(4-(1H-pyrrolo[2,3-b]pyridin-4-yl)-1H-pyrazol-1-yl)-1-((1-methylcyclopropyl)sulfonyl)azetidin-3-yl)acetonitrile], the IC50 on JAK1 is 0.72 nM; against JAK2 it was 1.23 nM; on JAK3 it was 23.6 nM. The same compound displayed an AUC(0-t) in data set [1] of 540 ng·h/mL. The pIC50 at hERG potassium channel is less than 4.52.

Regarding `CN(C)S(=O)(=O)N1CC(CC#N)(n2cc(-c3c(C#N)cnc4[nH]ccc34)cn2)C1` [Compound 34, 3-(4-(5-cyano-1H-pyrrolo[2,3-b]pyridin-4-yl)-1H-pyrazol-1-yl)-3-(cyanomethyl)-N,N-dimethylazetidine-1-sulfonamide], the IC50 was 0.8 nM at JAK1 and 1.66 nM at JAK2.

For the compound `N#CCC1(n2cc(-c3ccnc4[nH]ccc34)cn2)CN(S(=O)(=O)N2CCCC2)C1` [Compound 35, 2-(3-(4-(1H-pyrrolo[2,3-b]pyridin-4-yl)-1H-pyrazol-1-yl)-1-(pyrrolidin-1-ylsulfonyl)azetidin-3-yl)acetonitrile], the IC50 at JAK1 is 1.46 nM; against JAK2 it was 1.4 nM; on TYK2, more than 30 nM; against JAK3, more than 30 nM. In addition, the negative-log IC50 (pIC50) on hERG potassium channel was less than 4.52.

`CCCS(=O)(=O)N1CC(CC#N)(n2cc(-c3c(C#N)cnc4[nH]ccc34)cn2)C1` [Compound 40, 4-(1-(3-(cyanomethyl)-1-(propylsulfonyl)azetidin-3-yl)-1H-pyrazol-4-yl)-1H-pyrrolo[2,3-b]pyridine-5-carbonitrile]: the IC50 against JAK1 came out at 0.97 nM; at JAK2, 2.24 nM.

As to `N#CCC1(n2cc(-c3c(C#N)cnc4[nH]ccc34)cn2)CN(S(=O)(=O)CCC(F)(F)F)C1` [Compound 44, 4-(1-(3-(cyanomethyl)-1-((3,3,3-trifluoropropyl)sulfonyl)azetidin-3-yl)-1H-pyrazol-4-yl)-1H-pyrrolo[2,3-b]pyridine-5-carbonitrile], the IC50 on JAK1 was 1.95 nM; against JAK2, 3.93 nM.

`CCS(=O)(=O)N1CC(C(C)C#N)(n2cc(-c3c(C#N)cnc4[nH]ccc34)cn2)C1` (stereo not shown) [Compound 45, 4-(1-(3-(1-cyanoethyl)-1-(ethylsulfonyl)azetidin-3-yl)-1H-pyrazol-4-yl)-1H-pyrrolo[2,3-b]pyridine-5-carbonitrile]: the results for the half-inhibitory concentration (IC50) on JAK1 and on JAK2 were 1.66 nM and 3.22 nM, respectively.

`CCS(=O)(=O)N1CC([C@@H](C)C#N)(n2cc(-c3c(C#N)cnc4[nH]ccc34)cn2)C1` [Compound 45-1, (R)-4-(1-(3-(1-cyanoethyl)-1-(ethylsulfonyl)azetidin-3-yl)-1H-pyrazol-4-yl)-1H-pyrrolo[2,3-b]pyridine-5-carbonitrile]: the IC50 was 1.65 nM at JAK1, 1.17 nM against JAK2, approximately 30 nM against TYK2 and 10 to 30 nM against JAK3. Besides, at hERG potassium channel, the negative logarithm of the IC50 (pIC50) was less than 4.52.

As for `CCS(=O)(=O)N1CC([C@H](C)C#N)(n2cc(-c3c(C#N)cnc4[nH]ccc34)cn2)C1` [Compound 45-2, (S)-4-(1-(3-(1-cyanoethyl)-1-(ethylsulfonyl)azetidin-3-yl)-1H-pyrazol-4-yl)-1H-pyrrolo[2,3-b]pyridine-5-carbonitrile], the IC50 against JAK1 is 1.85 nM; against JAK2 it was 1.11 nM; on TYK2 it was approximately 30 nM; against JAK3, 10 to 30 nM. In addition, the pIC50 on hERG potassium channel was less than 4.52.

As for `CCS(=O)(=O)N1CC(CC#N)(n2cc(-c3ncnc4[nH]ccc34)c(C)n2)C1` [Compound 49, 2-(1-(ethylsulfonyl)-3-(3-methyl-4-(7H-pyrrolo[2,3-d]pyrimidin-4-yl)-1H-pyrazol-1-yl)azetidin-3-yl)acetonitrile], the IC50 is more than 10 µM at CYP1A2, 1.21 nM against JAK2, more than 10 µM against CYP3A4 and more than 10 µM against CYP2D6. In addition, on hERG potassium channel, the pIC50 is less than 4.52.

Turning to `CCS(=O)(=O)N1CC(CC#N)(n2cc(-c3c(Cl)cnc4[nH]ccc34)cn2)C1` [Compound 50-HCl, 2-(3-(4-(5-chloro-1H-pyrrolo[2,3-b]pyridin-4-yl)-1H-pyrazol-1-yl)-1-(ethylsulfonyl)azetidin-3-yl)acetonitrile Hydrochloride Salt], the IC50 on JAK2 (Hydrochloride Salt) was determined as 0.62 nM.

Turning to `CCS(=O)(=O)N1CC(CC#N)(n2cc(-c3c(F)cnc4[nH]ccc34)cn2)C1` [Compound 52-HCl, 2-(1-(ethylsulfonyl)-3-(4-(5-fluoro-1H-pyrrolo[2,3-b]pyridin-4-yl)-1H-pyrazol-1-yl)azetidin-3-yl)acetonitrile Hydrochloride Salt], the concentration for half-maximal inhibition (IC50) at JAK2 (Hydrochloride Salt) was 0.35 nM.

For `CCS(=O)(=O)N1CC(CC#N)(n2cc(C)c(-c3ncnc4[nH]ccc34)c2)C1` [Compound 56, 2-(1-(ethylsulfonyl)-3-(3-methyl-4-(7H-pyrrolo[2,3-d]pyrimidin-4-yl)-1H-pyrrol-1-yl)azetidin-3-yl)acetonitrile], the half-inhibitory concentration (IC50) at JAK1 was 3.52 nM; at JAK2 it was 1.76 nM.
